How the values were obtained:
Rattus norvegicus [1] = experiment: Antidiabetic activity in po dosed Sprague-Dawley rat assessed as inhibition of glucose excursion administered 30 mins prior glucose challenge measured over 30 to 120 mins post challenge by OGTT; assay type: functional, organism-based
Rattus norvegicus [2] = species on record: Rattus norvegicus; experiment: animal or person; conditions: Sprague-Dawley, po, read-out: INH
Rattus norvegicus [3] = species on record: Rattus norvegicus; experiment: animal or person; conditions: Sprague-Dawley, po, read-out: INH; remark: listed apart in the source
Rattus norvegicus [4] = species on record: Rattus norvegicus; experiment: animal or person; conditions: Sprague-Dawley, po, read-out: INH; remark: listed apart in the source

**Q.** With `N#C[C@@H]1CCCN1C(=O)[C@@H](N)Cc1ccc(-c2cn(Cc3ccc(F)cc3)nn2)cc1` as the molecule, how does the inhibition (Rattus norvegicus [1]) read?
**A.** Its inhibition is “Dose-dependent effect”.

**Q.** And the inhibition in vivo at 10 mg/kg (Rattus norvegicus [2])?
**A.** The inhibition in vivo at 10 mg/kg was 28.8%.

**Q.** What about the inhibition in vivo at 3 mg/kg (Rattus norvegicus [3]) of the same molecule?
**A.** The inhibition in vivo at 3 mg/kg was 21.7%.

**Q.** And the inhibition in vivo at 1 mg/kg (Rattus norvegicus [4])?
**A.** Its inhibition in vivo at 1 mg/kg is 20.8%.
